Literature values in patent US20100239682A1, “COLONIC DELIVERY OF ANTIMICROBIAL AGENTS” (priority 2007, published 2010).

Experiments:
Enterobacteriaceae = conditions: human volunteers, oral, different dosages
[1] = human volunteers, high doses

colistin [Colimycin]
effectiveness at achieving selective decontamination (Enterobacteriaceae): only high dosages of Colimycin were effective
tolerance at the gastric level [1]: very poorly tolerated
